Data as given in patent publication US12247019B2 (Centaurus Therapeutics, priority 2018, dated 2025).
pIC50: −log10 of the molar value.

Molecular target: T1, Des1 (Homo sapiens, UniProt O15121)
T1 sequence (O15121 1-323): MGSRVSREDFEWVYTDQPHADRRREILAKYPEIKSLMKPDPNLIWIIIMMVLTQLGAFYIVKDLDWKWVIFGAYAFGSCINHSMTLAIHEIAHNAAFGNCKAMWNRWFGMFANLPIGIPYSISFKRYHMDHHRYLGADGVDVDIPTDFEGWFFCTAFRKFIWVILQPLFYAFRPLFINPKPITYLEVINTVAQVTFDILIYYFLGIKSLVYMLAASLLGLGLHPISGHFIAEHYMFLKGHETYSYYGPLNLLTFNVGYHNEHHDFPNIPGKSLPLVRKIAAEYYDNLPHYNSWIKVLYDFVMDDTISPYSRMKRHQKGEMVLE
Assay: Jurkat T cell measurement of conversion of dihydroceramide to ceramide (Des1 activity, LC-MS/MS of NBD-C6-ceramide)
Format: cell-based
Parameters: endogenous in cells; host or cells: Jurkat clone E6-1
Conditions: Jurkat clone E6-1 cells, 10 μM NBD-C6-dihydroceramide, 3 hours at 37° C.; for inhibition at 0.5 µM: 0.5 uM compound, read-out: Des1 % Inhib (0.5 uM); for pIC50: read-out: Des1 IC50
Method: Jurkat T Cell Measurement of Conversion of Dihydroceramide to Ceramide
Jurkat clone E6-1 cells were grown and then seeded at 10^6 cells/mL in a 96-well plate (400 μL in each well. The cells were administered 100 μL of cell culture media containing 50-μM NBD-C6-dihydroceramide (Des1 substrate), affording a final concentration of substrate of 10 μM. The cells were incubated with substrate at 4° C. for 30 minutes. Following the incubation at 4° C., the cell suspension was centrifuged at 1200 rpm for 3 minutes, and the cell pellet is resuspended in 400 μL of fresh media containing various concentrations of either fenretinide (known Des1 inhibitor control compound) or test article. The final concentrations of control compound and test compounds were tested in a range from 0-10 μM. The cells and compounds were incubated at 37° C. for 3 hours. Following the 3-hour incubation, the plate was centrifuged at 2500 g for 3 minutes at 4° C., followed by collection and transfer of 200 μL of the supernatant to a new 96-well plate with 300 μL of methanol an containing appropriate internal standards for liquid chromatography/tandem mass spectroscopy (LC/MS/MS) analysis (internal standard: 500 nM labetalol and 100 nM alprazolam). The samples were vortexed for 2 minutes followed by centrifugation at 3,220 g for 20 minutes. Following centrifugation, 200 μL of the supernatant was transferred to a new 96-well plate for LC-MS/MS analysis to determine the amount of NBD-C6-ceramide (Des1 product) produced. The assay was typically performed in duplicate. A reduction of at least 30% compared to vehicle control (0 μM test article) is indicative of an active compound, and a reduction of 75% compared to vehicle control is preferred.

| Structure (SMILES) | inhibition at 0.5 µM [%] | pIC50 |
| --- | --- | --- |
| O=C(Nc1ccc(O)cn1)OC1CCCCC1 [Example 42, Cyclohexyl N-(5-hydroxypyridin-2-yl)carbamate] | 81.4 | 7.46 |
| O=C(Nc1ccc(O)cn1)N1CCC(c2ccc(F)cc2)CC1 [Example 2, N-[5-[Hydroxy]pyridin-2-yl]-4-(4-fluorophenyl)piperidine-1-carboxamide] | 91.7 | 7.60 |
| O=C(Nc1ccc(O)cn1)N1CCN(c2nc(F)c(F)cc2F)CC1 [Example 83, N-(5-hydroxypyridin-2-yl)-4-(3,5,6-trifluoropyridin-2-yl) piperazine-1-carboxamide] | 94.9 | 7.19 |
| O=C(Nc1ccc(O)cn1)N1CCN(c2ccc(F)cc2F)CC1 [Example 13, 4-(2,4-difluorophenyl)-N-(5-hydroxypyridin-2-yl)piperazine-1-carboxamide] | 93 | 7.48 to 8.05 |
| O=C(Nc1ccc(O)cn1)N1CCN(c2ncc(F)cc2F)CC1 [Example 79, 4-(3,5-difluoropyridin-2-yl)-N-(5-hydroxypyridin-2-yl) piperazine-1-carboxamide] | 93.8 | 7.15 to 8.12 |
| COc1ccc(N2CCN(C(=O)Nc3ccc(O)cn3)CC2)cc1 [Example 15, N-(5-hydroxypyridin-2-yl)-4-(4-methoxyphenyl)piperazine-1-carboxamide] | 81.8 | 6.96 |
| CCCCCCNC(=O)Nc1ccc(O)cn1 [Example 40, 1-Hexyl-3-(5-hydroxypyridin-2-yl)urea] | 89.1 | 7.89 |
| O=S(=O)(Nc1ccc(O)cn1)N1CCN(c2ccc(C(F)(F)F)cc2)CC1 [Example 75, N-(5-hydroxypyridin-2-yl)-4-(4-(trifluoromethyl)phenyl)-piperazine-1-sulfonamide] | 91.2 | 7.07 to 7.21 |
| O=C(Nc1ccc(O)cn1)NC1CCN(c2ccc(Cl)cc2)CC1 [Example 52, 1-[1-(4-chlorophenyl)piperidin-4-yl]-3-(5-hydroxypyridin-2-yl)urea] | – | 7.54 |
| O=C(Nc1ccc(O)cn1)O[C@H]1CC[C@H](c2ccccc2)CC1 [Example 43, (1r,4r)-4-Phenylcyclohexyl N-(5-hydroxypyridin-2-yl)carbamate] | 97 | 8.22 |
| O=C(Nc1ccc(O)cn1)N1CCN(Cc2ccc(F)c(F)c2)CC1 [Example 77, 4-[(3,4-difluorophenyl)methyl]-N-(5-hydroxypyridin-2-yl)piperazine-1-carboxamide] | 91.9 | 7.46 |
| O=C(Nc1ccc(O)cn1)N1CCN(c2cc(F)ccn2)CC1 [Example 78, 4-(4-fluoropyridin-2-yl)-N-(5-hydroxypyridin-2-yl)piperazine-1-carboxamide] | 93.4 | 7.19 to 7.72 |
| O=C(Oc1ccc(O)cn1)N1CCN(c2ccc(C(F)(F)F)cn2)CC1 [Example 88, 5-hydroxypyridin-2-yl 4-[5-(trifluoromethyl)pyridin-2-yl]piperazine-1-carboxylate] | 92.7 | 7.60 |
| O=C(Nc1ccc(O)cn1)OC1CCN(c2ccc(Cl)cc2)CC1 [Example 55, 1-(4-chlorophenyl)piperidin-4-yl N-(5-hydroxypyridin-2-yl)carbamate] | 96.5 | 8.70 |
| O=C(Nc1ccc(O)cn1)N1CCCCC1 [Example 10, N-(5-Hydroxypyridin-2-yl)piperidine-1-carboxamide] | 15 | – |
| O=C(Nc1ccc(O)cn1)OC1CCN(c2ccc(Cl)cc2Cl)CC1 [Example 58, 1-(2,4-dichlorophenyl)piperidin-4-yl N-(5-hydroxypyridin-2-yl)carbamate] | 96.8 | 8.40 |
| O=C(Nc1ccc(O)cn1)N1CCN(c2ccc(Cl)cc2Cl)CC1 [Example 23, 4-(2,4-dichlorophenyl)-N-(5-hydroxypyridin-2-yl)piperazine-1-carboxamide] | – | 8.00 |
